Reference: patent publication US10046001B2, “Compositions and methods for reducing intraocular pressure” (UNIVERSITY OF MIAMI, priority 2013, dated 2018)

Assays:
[1] = test system: assembled layers of primary TM cells; experiment: fluorescein transport across assembled layers of primary TM cells in Using type chamber; format: cell-based, human; settings: 10 pmole lipid, transport at 15 seconds
Source text: A pentalayer of cells were casted on a PVDF filter of 0.45 μm pore size with second to fourth layer topped with rat collagen. Control (without lipid treatment) or with 10 pmole of indicated lipid treated cells were used for these measurements. The transport of flourescein at 15 seconds from the opposite end after introduction of sample at one was estimated. Mean and standard deviation from three independent experiments have been presented. The relative transport has been divided into two zones (marked in yellow), that when the transport is above 0.48 but less than 0.62=1; and above 0.62=2 as indicated.
The transport of fluorescein across cell assembled layered TM cells was determined in an Using type chamber (FIG. 4). The five layers of primary TM cells with collagen matrix in between layers after the first layer were laid on a sterile PVDF membrane (0.45 μm pores). The fluorescein was introduced from one side of the port (the cellular side) and was sampled from another side (the membrane side) within 15 seconds of introduction. Differences in transport between the cell only control and cell treated with lipids for 1-3 hours prior to forming multi-layers (FIG. 4) was observed. The fluorescein transport was quantized and divided into two categories (marked with yellow zones) as 1 and 2 (FIG. 4).
Using type chamber experiments: An Using type chamber (cat #USS1L, World Precision Instrument, Inc.) was used to measure fluorescein flow (sodium fluorescein dye) across the PVDF membrane (cat #75696E Pall Life Sciences, Pensacola Fla.). Trabecular meshwork cells were cultured as described above on the PVDF membrane. Before plating the cells a layer of collagen matrix (Rat Tail Collagen, cat #BD 354249) was formed on the membrane to facilitate the adherence of TM cells to the membrane. The cells were allowed to form a confluent monolayer over a period of 16-24 hours and then another layer of cells was plated on this monolayer. This process was repeated to ultimately achieve a confluent tri-layer of cells. The cells were transfected with DNA of interest [TREK-1+cochlin, TREK-1 and RPE65, TREK-1, transfection agent (Lipofectamine 2000) (Invitrogen)] or left untransfected. 24-36 hours post transfection the membranes were placed between the hemi-chambers of the apparatus connected to a peristaltic pump creating flow across the membrane bathing in 1× DPBS. To measure the flow across the membrane, sodium flourescein dye was used (1:100 dilution of 1 mg/ml). The dye was introduced in one hemi-chamber and equal amounts (100 μl) were aspirated from the other hemi-chamber at 5 minutes post-injection. The fluorescein intensity was measured using the spectrophotometer.

[2] = test system: trabecular meshwork (TM) primary cells; experiment: mobility and cell shape changes of primary TM cells exposed to lipids (time-lapse imaging); format: cell-based, human; settings: for mobility and cell shape changes for trabecular meshwork (TM) primary cells due to exposure to lipids: 10 pmoles of lipid; for dynamics of filopodia formation: exposure to lipids vs vehicle
Method: FIGS. 2A and 2B show representative images of the effect of lipid on trabecular meshwork primary cells. The time lapsed images of cell at indicated time interval. A. The control TM cells were subjected to vehicle (5% DMSO) in phosphate buffered saline. […] A protrusion of filopodia in a cell is indicated by thick arrow head. At 2 minutes after addition of vehicle to 16 minutes, the protrusion remains unchanged. B. TM cells treated with 10 pmoles of lipid. Most cells have protrusions with only a few cells without them. The filopodia in lipid treated cells are dynamic, they undergo dynamic retraction starting at 1 or 2 minutes after addition of lipid in the serum free media, indicated by arrows. At 16 minutes filopodia are largely retracted.
Modulation of cell motility and shape. Compared to controls (vehicle-10% DMSO only treated) shape of primary TM cells (FIG. 2A), exposure to lipids changed the shape of cells promoting filopodia and motility (FIG. 2B). All these lipids promote contraction of filopodia (FIG. 2B, arrows) and well as expansion. These images were derived from time lapsed video imaging of primary TM cells and summary data from several donor derived cells. The exposure to lipids render the cells more dynamic with respect to filopodia formation and their dynamic expansion-contraction (Summarized in Table 1 (FIG. 11)). The motility and filopodia formation is affected by a variety of intrinsic and extrinsic factors such as age of the donors from where cell have been derived, cell density, composition of the medium, environmental temperature and incubation gas composition. The age of the donor and cell density are the most prominent factors.
TM cell culture experiments: Primary human TM cells were cultured from cadaveric corneo-scleral sections. The cells were isolated through a blunt dissection of the area containing and adjacent to the canal of Schlemm, followed by a 2 hour digestion in DPBS (cat #21-030-CV, Mediatech Inc, Manassas, Va.) suspension of 20% 0.01 μg/μL collagenase-A (cat #LS004194, Worthington, Lakewood N.J.). The blunt dissection and the proteolytic treatment were performed inside a 12 well culture plate (cat #665-180 Greiner Bio-One, Neuburg, Germany). Culture media containing [DMEM 1× (cat #10-017-CM, Mediatech Inc), 10% heat inactivated FBS (cat #35-016-CV, Mediatech), 0.5% 1.7 mM L-Glutamine (cat #G6392, Sigma-Aldrich), 1% Antibiotic-Antimycotic Solution (cat #30-004-CL, Mediatech)] was added after 2 hours to terminate digestion. A sterile microscopy slide (cat #56700-194, VMR) was placed on top of the tissue fragment to ensure bottom-contact and immobility inside the media well. The sections were cultured at 37° C. in 5% CO2 inside a cell culture incubator. Culture was washed with 1× DPBS 7 days later to remove tissue debris; media change occurred every 3-4 days. Thus obtained cells were trypsin-treated (cat #25-050-C1, Mediatech) and accordingly distributed the day before the transfection complexes were created using the ratio of 0.4 μg/uL of respective vector DNA to the transfection agent (Lipofectamine 2000, cat #11668-019, Invitrogen), prepared accordingly to the manufacturer's instructions Following addition to respective wells, the transfection reactions were allowed to take place over a 2.5 hour span, after which they were terminated through the addition of cell culture media. Cell assays and immunohistochemical analysis were performed at or within a 24 hour time mark in order to observe and track the effects of vector expression on morphological changes. Time-lapse microscopy was performed using cells grown on glass bottom chamber slides (cat #154534, Lab-Tek, Thermo Fisher Scientific Inc., Rochester N.Y.) and Zeiss AxioVert 200M, for the duration of 20 hours, with a snapshot every 15 minutes, starting at 24 hours post-transfection. Immunohistochemical analysis was performed on cells fixed with 4% PFA (cat #19943, USB Corp, Cleveland, Ohio) at time intervals of 0, 24, and 29 hours post-transfection. […]

Row | SMILES | transport of fluorescein in assembled layers of primary TM cells [1] | mobility and cell shape changes for trabecular meshwork (TM) primary cells due to exposure to lipids [2] | dynamics of filopodia formation [2]
1 | CCCCCCCCCCCCCC(=O)OC[C@@H](O)COP(=O)(O)OC[C@H](N)C(=O)O [PS(14:0/0:0)] | showed an effect | showed an effect | –
2 | CCCC/C=C\CCCCCCCC(=O)O[C@H](COC(=O)CCCCCCCCCCC)COP(=O)([O-])OCC[N+](C)(C)C [PC(12:0/14:1(9Z))] | lack of any effect | lack of any effect | exception
3 | CCCCC/C=C\C/C=C\C/C=C\C/C=C\CCCC(=O)O[C@H](COC(=O)CCCCCCCCCCCCCCCCC)COP(=O)(O)OC1[C@H](O)[C@H](O)C(O)[C@H](O)[C@H]1O (some centres unmarked) [PI(18:0/20:4)5Z,8Z,11Z,14Z))] | showed an effect | showed an effect | –
4 | CCCCCCCCCCCCCCCCCC(=O)OC[C@@H](O)COP(=O)(O)OC[C@H](N)C(=O)O [PS(18:0/0:0)] | showed an effect | showed an effect | –
5 | CCCCCCCCCCCCC(=O)OC[C@H](COP(=O)([O-])OCC[N+](C)(C)C)OC(=O)CCCCCCCCCCCC [PC(13:0/13:0), 1,2-ditridecanoyl-sn-glycero-3-phosphocholine, reference compound] | lack of any effect | lack of any effect | exception
6 | CCCCCCCCCCCCCC[C@@H](O)[C@@H](N)COP(=O)(O)O [C17 Sphinganine-1-phosphate] | showed an effect | showed an effect | –
7 | CCCCCCCCCCCCCCC[C@@H](O)[C@@H](N)CO [Sphinganine] | showed an effect | showed an effect | –
8 | CCCCCCCCCCC/C=C/[C@@H](O)[C@H](COP(=O)([O-])OCC[N+](C)(C)C)NC(=O)CCCCCCCCCCCCCCCCCCCCCCCC [SM(d16:1/25:0)] | showed an effect | showed an effect | –
9 | CCCCCCCCCCCCCCCCCC(=O)OC[C@H](COP(=O)(O)OCCN)OC(=O)CCCCCCCCCCCCCCCCC [PE(18:0/18:0)] | showed an effect | showed an effect | –
10 | CCCC/C=C\C/C=C\CCCCCCCC(=O)O[C@H](COC(=O)CCCCCCCCCCC)COP(=O)(O)OC1C(O)C(O)C(O)[C@@H](O)C1O (some centres unmarked) [PI(12:0/17:2)9Z,12Z))] | showed an effect | showed an effect | –
11 | CCCCCCCC/C=C\CCCCCCCCCCCCCCCC(=O)N[C@@H](CO)[C@H](O)/C=C/CCCCCCCCCCCCC [Cer(d18:1/26:1(17Z))] | showed an effect | showed an effect | –
12 | CCCCCCCC/C=C\CCCCCCCC(=O)N[C@@H](CO)[C@H](O)CCCCCCCCCCCCCCC [Cer(d18:0/18:1(9Z))] | showed an effect | showed an effect | –
